Experimental findings from publication PMC11121200 (Acta Pharmaceutica Sinica. B, 2024) are described below.

Assay [1] has as its target T1, MatB (Arabidopsis thaliana, UniProt Q8H151).
T1 sequence (Q8H151 1-608): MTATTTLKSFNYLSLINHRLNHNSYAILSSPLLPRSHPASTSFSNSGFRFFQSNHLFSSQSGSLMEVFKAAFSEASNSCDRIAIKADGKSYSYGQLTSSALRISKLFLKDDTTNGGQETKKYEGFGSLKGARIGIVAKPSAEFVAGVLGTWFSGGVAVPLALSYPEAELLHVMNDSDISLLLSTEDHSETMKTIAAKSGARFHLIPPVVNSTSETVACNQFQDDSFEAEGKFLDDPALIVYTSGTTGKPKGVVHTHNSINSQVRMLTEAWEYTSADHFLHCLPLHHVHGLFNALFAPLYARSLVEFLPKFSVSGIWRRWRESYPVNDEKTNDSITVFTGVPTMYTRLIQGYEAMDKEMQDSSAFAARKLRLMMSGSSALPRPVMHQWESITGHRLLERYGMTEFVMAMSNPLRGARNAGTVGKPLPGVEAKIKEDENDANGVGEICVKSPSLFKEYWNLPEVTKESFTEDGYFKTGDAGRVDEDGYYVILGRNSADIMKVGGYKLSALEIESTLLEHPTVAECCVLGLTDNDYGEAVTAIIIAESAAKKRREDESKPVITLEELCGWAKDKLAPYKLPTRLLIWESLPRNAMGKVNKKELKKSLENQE
The assay is described as follows: HPLC detection of malonyl-CoA formed. It is filed as biochemical. The conditions noted are these: 1.5 mmol/L CoA, 3 mmol/L ATP, 5 mmol/L MgCl2, 1 mmol/L DTT, potassium phosphate pH 6.0, 30 °C, 12 h.

The test system of another assay is CtMaT1. The assay is described as follows: HPLC initial-rate kinetics, nonlinear regression. The class given is biochemical, Cistanche tubulosa. The conditions noted are these: 2 mmol/L malonyl-CoA as co-substrate, 1 mmol/L DTT, 100 mmol/L potassium phosphate pH 6.0, 30 °C.
Assay [2] concerns the target T1, MatB. The conditions noted are these: 1.5 mmol/L CoA, 3 mmol/L ATP, 5 mmol/L MgCl2, 1 mmol/L DTT, potassium phosphate pH 6.0, 30 °C, 12 h.

Usually Km stands for the substrate concentration at which the rate is half of its maximum.

As to `O=C(O)CC(=O)O` [malonic acid], the “HPLC detection of malonyl-CoA formed” value at MatB [1] was “made directly from malonic acid in the presence of CoA, ATP, and MatB proteins”.
Turning to `OC[C@H]1O[C@@H](OCCc2ccc(O)cc2)[C@H](O)[C@@H](O)[C@@H]1O` [compound 2, salidroside], in the assay with CtMaT1, the Km was 757 ± 58.2 µM.
With `OC[C@H]1O[C@@H](Oc2cc3c(O)cc(O)cc3[o+]c2-c2ccc(O)c(O)c2)[C@H](O)[C@@H](O)[C@@H]1O` [compound 1, cyanidin 3-glucoside], in the assay on CtMaT1, the Km amounted to 685 ± 25.3 µM.
`CC(C(=O)O)C(=O)O` [methylmalonic acid]: the “HPLC detection of methylmalonyl-CoA formed” value at MatB [2] is “MatB could also conduct the synthesis of methyl-MLC”.
